Assay results reported in publication PMC10385743.
Where two headings read alike, the source gives them in different places.

How the values were obtained:
[1] = test system: HCV GT 3a (strain S52) subgenomic replicon; assay: microbe, parasite or virus in culture; format: cell-based, hepatitis C virus; details: Hepatitis C virus, GT3A, 72 h, luciferase, mean ± SD, read-out: Huh7.5-3a(S52) (HCV Replicon 3a) EC50
[2] = test system: HCV GT 4a (strain ED43) subgenomic replicon; assay: microbe, parasite or virus in culture; format: cell-based, hepatitis C virus; details: Hepatitis C virus, GT4A, 72 h; luciferase; mean ± SD; read-out: Huh7.5-4a(ED43) (HCV Replicon 4a) EC50
[3] = test system: YFV (strain 17D) subgenomic replicon; assay: microbe, parasite or virus in culture; format: cell-based, yellow fever virus; details: Yellow fever virus, 72 h, read-out: Huh7-YF (YFV Replicon 17D) EC50
[4] = test system: DENV serotype 2 (strain 16681) subgenomic replicon; assay: microbe, parasite or virus in culture; format: cell-based, dengue virus; details: Dengue virus, DENV2; 72 h; luciferase; mean ± SD; read-out: Huh7-D2 (DENV-2 Replicon) EC50
[5] = test system: bloodstream form T. b. brucei (strain 221); details: for SI (CC50 for L6 cells / EC50 for T. brucei): selectivity index; for increase in activity against T. brucei relative to parent compound: 38, 40, 41 versus parent 36, 42 versus parent 37
[6] = test system: bloodstream form T. b. brucei (strain 221); assay: microbe, parasite or virus in culture; details: Trypanosoma brucei, mean of triplicate experiments ± SEM; for EC50: read-out: T. brucei EC50, cultured bloodstream form; for EC90: read-out: T. brucei EC90, cultured bloodstream form
[7] = test system: T. cruzi (CL Brener strain) epimastigotes; assay: microbe, parasite or virus in culture; details: Trypanosoma cruzi; for EC50: read-out: T. cruzi EC50; for EC90: read-out: T. cruzi EC90
[8] = Cytotoxicity against cultured L6 cells (resazurin); details: rat, L6 rat skeletal myoblast cells, L6 Cells CC50, mean of triplicate experiments ± SEM
[9] = Cytotoxicity in Huh5-2 replicon cells (intracellular ATP levels); details: human
[10] = test system: T. cruzi (CL Brener strain) epimastigotes; details: selectivity index
[11] = test system: bloodstream form T. b. brucei (strain 221); details: cited from earlier work
[12] = earlier lead compounds, read-out: T. brucei EC50

With `O=C(CN1C(=O)NC2(CCC(c3ccccc3)CC2)C1=O)NO` (stereo not shown) [Compound 36, N-Hydroxy-2-(2,4-dioxo-8-phenyl-1,3-diazaspiro [4.5]decan-3-yl) acetamide] the EC50 [1] was 750 ± 130 nM, the EC50 [2] was 390 ± 10 nM and the EC50 [3] was greater than 10000 nM. For the same compound, the EC50 [4] was 4640 ± 110 nM, the “SI (CC50 for L6 cells / EC50 for T. brucei)” value [5] was 70 and the EC50 [6] was 880 ± 100 nM. It also gave an EC90 [6] of 1180 ± 40 nM, an EC50 [7] greater than 30000 nM and a CC50 at 6 days [8] of 60800 ± 8200 nM. It also gave a CC50 at 72 h [9] of 75400 ± 8460 nM.
With `CN1C(=O)N(CC(=O)NO)C(=O)C12CCC(c1ccccc1)CC2` (stereo not shown) [Compound 38, N-Hydroxy-2-(1-methyl-2,4-dioxo-8-phenyl-1,3-diazaspiro [4.5]decan-3-yl)acetamide] the EC50 [1] was 630 ± 10 nM, the EC50 [2] was 220 nM and the EC50 [3] was greater than 10000 nM. The EC50 [4] was 10200 ± 180 nM, the “increase in activity against T. brucei relative to parent compound” value [5] was 9 fold and the “SI (CC50 for L6 cells / EC50 for T. brucei)” value [5] was 220. The “SI (CC50 for L6 cells / EC50 for T. cruzi)” value [10] was 4, the EC50 [6] was 100 ± 10 nM and the EC90 [6] was 140 ± 10 nM. For the same compound, the EC50 [7] was 6250 ± 240 nM, the EC90 [7] was 13300 ± 300 nM and the CC50 at 6 days [8] was 21700 ± 3900 nM. It also gave a CC50 at 72 h [9] of 43100 ± 2110 nM.
Work on `CN1C(=O)N(CC(=O)NO)C(=O)C12CCCCC2c1ccccc1` (stereo not shown) [Compound 39, N-Hydroxy-2-(1-methyl-2,4-dioxo-6-phenyl-1,3-diazaspiro [4.5]decan-3-yl)acetamide] yielded an EC50 [1] greater than 10000 nM, an EC50 [2] greater than 10000 nM and an EC50 [3] greater than 10000 nM. For the same compound, the EC50 [4] was 4620 ± 390 nM, the “SI (CC50 for L6 cells / EC50 for T. brucei)” value [5] was 150 and the EC50 [6] was 1460 ± 60 nM. The EC90 [6] was 1750 ± 20 nM, the EC50 [7] was greater than 30000 nM and the CC50 at 6 days [8] was 217000 ± 6000 nM. It also gave a CC50 at 72 h [9] greater than 10000 nM.
Work on `CCN1C(=O)N(CC(=O)NO)C(=O)C12CCC(c1ccccc1)CC2` (stereo not shown) [Compound 40, N-Hydroxy-2-(1-ethyl-2,4-dioxo-8-phenyl-1,3-diazaspiro [4.5]decan-3-yl)acetamide] yielded an EC50 [1] of 520 ± 80 nM, an EC50 [2] of 310 ± 130 nM and an EC50 [3] of 6670 ± 50 nM. For the same compound, the EC50 [4] was 680 ± 30 nM, the “increase in activity against T. brucei relative to parent compound” value [5] was 30 fold and the “SI (CC50 for L6 cells / EC50 for T. brucei)” value [5] was 1870. The “SI (CC50 for L6 cells / EC50 for T. cruzi)” value [10] was 48, the EC50 [6] was 29 ± 1 nM and the EC90 [6] was 55 ± 3 nM. The EC50 [7] was 1120 ± 30 nM, the EC90 [7] was 1860 ± 40 nM and the CC50 at 6 days [8] was 54300 ± 5900 nM. It also gave a CC50 at 72 h [9] of 10600 ± 120 nM.
Work on `O=C(CN1C(=O)N(Cc2ccccc2)C2(CCC(c3ccccc3)CC2)C1=O)NO` (stereo not shown) [Compound 41, N-Hydroxy-2-(1-benzyl-2,4-dioxo-8-phenyl-1,3-diazaspiro [4.5]decan-3-yl)acetamide] yielded an EC50 [1] greater than 10000 nM, an EC50 [2] greater than 10000 nM and an EC50 [3] greater than 10000 nM. The EC50 [4] was greater than 10000 nM, the “increase in activity against T. brucei relative to parent compound” value [5] was 100 fold and the “SI (CC50 for L6 cells / EC50 for T. brucei)” value [5] was 440. For the same compound, the “SI (CC50 for L6 cells / EC50 for T. cruzi)” value [10] was 12, the EC50 [6] was 9 ± 1 nM and the EC90 [6] was 11 ± 1 nM. For the same compound, the EC50 [7] was 340 ± 20 nM, the EC90 [7] was 740 ± 50 nM and the CC50 at 6 days [8] was 3980 ± 320 nM. It also gave a CC50 at 72 h [9] greater than 10000 nM.
In the case of `O=C(CN1C(=O)N(Cc2ccccc2)C2(CCCCC2c2ccccc2)C1=O)NO` (stereo not shown) [Compound 42, N-Hydroxy-2-(1-benzyl-2,4-dioxo-6-phenyl-1,3-diazaspiro [4.5]decan-3-yl)acetamide], the EC50 [1] is reported as greater than 10000 nM, the EC50 [2] is reported as 450 ± 20 nM and the EC50 [3] is reported as 4680 ± 230 nM. For the same compound, the EC50 [4] was 1370 ± 80 nM, the “increase in activity against T. brucei relative to parent compound” value [5] was 23 fold and the EC50 ([5]; read-out: T. brucei EC50, cultured bloodstream form, mean of triplicate experiments ± SEM) was 191 ± 6 nM. The “SI (CC50 for L6 cells / EC50 for T. brucei)” value [5] was 62, the “SI (CC50 for L6 cells / EC50 for T. cruzi)” value [10] was 6 and the EC50 [6] was 190 ± 10 nM. For the same compound, the EC90 [6] was 237 ± 3 nM, the EC50 [7] was 1950 ± 50 nM and the EC90 [7] was 3120 ± 120 nM. The CC50 at 6 days [8] was 11900 ± 700 nM and the CC50 at 72 h [9] was 9370 ± 182 nM.
For `O=C(CN1C(=O)NC2(CCc3ccccc32)C1=O)NO` (stereo not shown) [III], the EC50 [11, 12] is listed as 440 ± 80 nM.
For `O=C(CN1C(=O)CNC2(CCCCCC2)C1=O)NO` [II], the EC50 ([11]; read-out: Trypanocidal activity (T. brucei) EC50) is listed as 1870 ± 80 nM.
For `O=C(CN1C(=O)NC2(CCCCc3ccccc32)C1=O)NO` (stereo not shown) [IV], the EC50 [11, 12] is listed as 400 ± 40 nM.
